Test results taken from patent publication US20100291622A1, “NOVEL COMPOUND, PROCESS FOR PRODUCTION THEREOF, AND USE THEREOF” (SCHOOL JURIDICAL PERSON KITASATO INSTITUTE, priority 2007, published 2010).
Converted amounts (≈) assume the structure as drawn. Like-named read-outs stand apart in the source and are kept apart here.

Legend:
Solubility in solvents = format: physicochemical
[1] = biological target: T1, undecaprenyl diphosphate synthase derived from Staphylococcus aureus (Staphylococcus aureus, UniProt P60477); experiment: Inhibitory effect on undecaprenyl diphosphate synthase (phosphate release, Amplex Red fluorescence); format: biochemical
T1 construct: made in house; host or cells: E. coli BL21 (DE3), T7 promoter, IPTG induction; unpurified cell-free extract (100,000 x g supernatant)
T1 sequence (P60477 whole entry): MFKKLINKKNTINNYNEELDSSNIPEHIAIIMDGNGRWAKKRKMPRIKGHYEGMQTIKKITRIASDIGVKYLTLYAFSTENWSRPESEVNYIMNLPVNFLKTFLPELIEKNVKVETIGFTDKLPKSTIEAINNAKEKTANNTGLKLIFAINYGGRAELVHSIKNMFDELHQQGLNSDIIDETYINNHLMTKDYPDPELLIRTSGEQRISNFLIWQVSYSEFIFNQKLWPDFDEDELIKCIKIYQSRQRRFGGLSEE
Protocol: (1) Inhibitory effect on the undecaprenyl diphosphate synthase derived from Staphylococcus aureus
The test on the activity of undecaprenyl diphosphate synthase was determined following a method of LI et al. (J. Biomol. Screen., vol. 8, pages 712-715, 2003) with partial changes. […]
The measurement of the activity of undecaprenyl diphosphate synthase was conducted as follows: the FKI-3368 substance was added to a buffer solution B (100 mM Tris-HCl buffer solution (pH 7.5), 50 mM potassium chloride, 0.5 mM magnesium chloride, 0.5 μM farnesyl diphosphate, 3.5 μM isopentenyl diphosphate, […] inorganic pyrophosphatase) so that 90 μL in total volume might be respectively put in each well of a 96-well microplate. […] In order to quantify the released phosphate, 100 μL of a solution C (0.5M Tris-HCl buffer solution (pH 8.8), 1.5 mM inosine, 50 μM Amplex™ Red, 0.02 U nucleoside phosphorylase, 1 U peroxidase, 0.4 U xanthine oxidase) was added to each well and after reaction was performed at room temperature for 40 minutes, fluorescence intensity was measured under the conditions of an excitation wavelength at 544 nm and a measurement wavelength at 590 nm.
The addition amount of […] and the intensity of fluorescence (F.I.) measured in a reaction liquid without the addition thereof were applied to the following expression and the inhibition % was calculated: […]

Escherichia coli NIHJ = experiment: MIC by agar dilution; format: cell-based; conditions: 37° C. for 18 hours
Protocol: (§1) The measurement of the minimal inhibitory concentration (MIC) for various microbes of the FKI-3368-I substance of the present invention was performed by the following method. An ethanol solution of the FKI-3368-I substance was subjected to 2-fold dilution from the concentration of 1,000 μg/ml to prepare 14 stage diluted solutions (1,000 μg/ml, 500 μg/ml, 250 μg/ml, 125 μg/ml, 62.5 μg/ml, 31.3 μg/ml, 15.6 μg/ml, 7.8 μg/ml, 3.9 μg/ml, 2 μg/ml, 1 μg/ml, 0.5 μg/ml, 0.24 μg/ml and 0.12 μg/ml). After 1 ml each of the respective diluted solutions was placed on a round shape dish (90 mm (diameter)×20 mm, produced by IWAKI Co., Ltd.), 9 ml of a culture medium-N for sensitivity disc (for bacteria; produced by Nissui Pharmaceutical Co., Ltd.) or Sabouraud glucose agar (for yeast or mold; produced by Nihon Pharmaceutical Co., Ltd.) was added thereto to form plate media. The test microbes had been incubated in advance in Muller Hinton culture media (for bacteria; produced by Nissui Pharmaceutical Co., Ltd.) or potato dextrose agar media (for yeast or mold; produced by Nissui Pharmaceutical Co., Ltd.). On the very date when the test was performed, the resultant microbe suspensions were diluted with an Muller Hinton culture medium or a potato dextrose culture medium and a platinum loop thereof was streak-smeared on the plate media. These streak-smeared plate media was incubated at 37° C. for 18 hours (for bacteria) or at 27° C. for 40 hours (for yeast and mold) and MIC was determined.

[2] = system: Micrococcus luteus ATCC 9341; experiment: MIC by agar dilution; format: cell-based; conditions: ATCC9341; Micrococcus luteus ATCC 9341, 37° C. for 18 hours
Protocol: as §1

[3] = system: Penicillium chrysogenam IAM 12842; experiment: MIC by agar dilution; format: cell-based; conditions: IAM12842, 40 h
Protocol: as §1

[4] = system: Mycobaderium smegmatis ATCC 607; experiment: MIC by agar dilution; format: cell-based; conditions: 18 h
Protocol: as §1

[5] = system: Aspergillus niger ATCC 9642; experiment: MIC by agar dilution; format: cell-based; conditions: ATCC9642; Aspergillus niger ATCC 9642, 27° C. for 40 hours
Protocol: as §1

MRSA K24 = experiment: MIC by agar dilution; format: cell-based; conditions: Staphylococcus aureus, 18 h
Protocol: as §1

[6] = system: Klebsiella pneumoniae ATCC 10031; experiment: MIC by agar dilution; format: cell-based; conditions: ATCC10031; Klebsiella pneumoniae ATCC 10031, 37° C. for 18 hours
Protocol: as §1

Mucor racemosus IFO 4581 = experiment: MIC by agar dilution; format: cell-based; conditions: IFO4581; Mucor racemosus IFO 4581, 27° C. for 40 hours
Protocol: as §1

[7] = system: Candida albicans ATCC 64550; experiment: MIC by agar dilution; format: cell-based; conditions: ATCC64550, 40 h
Protocol: as §1

[8] = system: Pseudomonas aeruginosa IFO 3080; experiment: MIC by agar dilution; format: cell-based; conditions: IFO3080; Pseudomonas aeruginosa IFO 3080, 37° C. for 18 hours
Protocol: as §1

[9] = system: Staphylococcus aureus ATCC 6538P; experiment: MIC by agar dilution; format: cell-based; conditions: ATCC6538P, 37° C. for 18 hours
Protocol: as §1

[10] = system: Saccharomyces cerevisiae ATCC 9763; experiment: MIC by agar dilution; format: cell-based; conditions: ATCC9763; Saccharomyces cerevisiae ATCC 9763, 27° C. for 40 hours
Protocol: as §1

[11] = system: Bacillus subtilis ATCC 6633; experiment: MIC by agar dilution; format: cell-based; conditions: ATCC6633; Bacillus subtilis ATCC 6633, 37° C. for 18 hours
Protocol: as §1

[12] = system: Serratia marcescens IAM 1021; experiment: MIC by agar dilution; format: cell-based; conditions: IAM1021; Serratia marcescens IAM 1021, 37° C. for 18 hours
Protocol: as §1

[13] = methanol, ethanol, acetonitrile, ethyl acetate, chloroform and dimethylsulfoxide

COc1cc(O)c2c(O)c3c(c4c2c1C1(C4)C(C)=CCCC1(C)C)C(O)C1(O)CC(O)=C(C(N)=O)C(=O)C1(O)C3=O (centres unmarked) [FKI-3368-1]
Solubility in solvents (Solubility in solvents; [13]): Soluble
Solubility in solvents (Solubility in solvents; water): indissoluble
IC50 ([1]; cell-free extract of transformed E. Coli as enzyme source, 37° C., 20 minutes, read-out: concentration at which the undecaprenyl diphosphate synthase activity was inhibited to 50% (IC50)): 4 µM
MIC (Escherichia coli NIHJ): > 100 µg/mL
MIC [2]: 1.56 µg/mL (≈ 2.76 µM)
MIC [3]: 6.25 µg/mL (≈ 11.1 µM)
MIC [4]: > 100 µg/mL
MIC [5]: 12.5 µg/mL (≈ 22.1 µM)
MIC (MRSA K24): 0.78 µg/mL (≈ 1.38 µM)
MIC [6]: > 100 µg/mL
MIC (Mucor racemosus IFO 4581): 25 µg/mL (≈ 44.2 µM)
MIC [7]: 6.25 µg/mL (≈ 11.1 µM)
MIC [8]: > 100 µg/mL
MIC [9]: 0.78 µg/mL (≈ 1.38 µM)
MIC [10]: 12.5 µg/mL (≈ 22.1 µM)
MIC [11]: 0.4 µg/mL (≈ 0.707 µM)
MIC [12]: > 100 µg/mL

COc1cc(O)c2c(O)c3c(c4c2c1C1(C4)C(C)=CCCC1(C)C)C(O)C1(O)CC(O)=C(C(C)=O)C(=O)C1(O)C3=O (centres unmarked) [FKI-3368-2]
Solubility in solvents (Solubility in solvents; [13]): Soluble
Solubility in solvents (Solubility in solvents; water): indissoluble
IC50 [1]: 10 µM
